Results: patent US20210267918A1, “PHARMACEUTICAL COMBINATION FOR USE IN AGE-RELATED AND/OR DEGENERATIVE DISEASES” (priority 2018, published 2021)
Where a name gives a salt, the structure may show the parent alone. Marks after values point to notes of the source that are not given here.

Tests used:
C. elegans [1] = test: WorMotel-based locomotion tracking (single dosing); format: in vivo, Caenorhabditis elegans; conditions: for increase in maximal baseline activity compared to the untreated control: baseline = prior to blue light stimulus; for increase in total number of healthy days (locomotion-based health span) versus untreated control: days with activity >15% of mean maximal activity of untreated control
Method: (§1) During the ‘single dosing assay’, we used the WorMotel platform for long-term recurrent imaging of C. elegans^3. This semi-automated platform allows for unbiased longitudinal monitoring of C. elegans aging phenotypes, including daily measurements of survival as well as locomotion quantification. From the onset of adulthood, animals were confined to individual wells in screening plates (i.e. microfabricated WorMotel chips prepared as described in^3) that were seeded with E. coli HT115(DE3) as a food source and supplemented with the corresponding compounds at different doses (Table 1). Four replicate screening plates were assayed, with all four tested conditions present on each screening plate (in randomized locations). Animals were kept on the same screening plates for the duration of the experiment (i.e. 30 days). The time of death is determined as the final time of nonzero movement. Note that this imaging platform is incompatible with repeated dosing. We used the statistical software R to construct Kaplan-Meier survival curves, calculate mean and median life span and carry out all related statistical analyses. To compare survival between two conditions, log-rank tests were used (i.e. survdiff function of the survival package, adjusted for multiple comparisons via the Benjamini-Hochberg method). The corresponding p-values are referred to as plog-rank.
(§2) Locomotion of C. elegans is characterized by sinusoidal movements (i.e. body bends), and progressively diminishes during adult life. As in other animals, maintenance of coordinated movement is considered a prime health span parameter^5.
Each imaging period, the mean and maximum locomotion activity before and after a blue light stimulus are quantified (as described in^3). The resulting activity values are termed ‘baseline locomotion’ and ‘stimulated locomotion’, respectively. […] An increase in ‘healthy days’ is indicative for an increase in locomotion-based healthspan. Results were analyzed using one-way and two-way ANOVAs, with the Holm-Sidak correction for multiple comparisons in GraphPad Prism software. All corresponding p-values are referred to as pANOVA.

[2] = system: wild-type C. elegans N2 strain; test: Life span assay, repeated dosing (manual scoring on NGM agar plates); format: in vivo, Caenorhabditis elegans; conditions: for Decrease MLS versus combo Met25 + Gal100 / Increase MLS versus untreated control / Max LS / Median LS: repeated dosing; for MLS ± SEM (mean life span): repeated dosing from first day of adulthood; for Max LS: day on which 10% of the animals are still alive; for Median LS: day on which 50% of the animals are still alive
Method: (§3) The wild-type C. elegans N2 strain was obtained from the Caenorhabditis Genetic Center (University of Minnesota, USA) and was cultivated at 20° C. on standard nematode growth medium (NGM) seeded with a thin layer of Escherichia coli OP50, unless stated otherwise. Life span of C. elegans was measured analogous to methods described earlier^1,2. The first day of adulthood was always recorded as day 0. FUdR (5-fluoro-2′-deoxyuridine, Sigma-Aldrich) was used in all life span assays to avoid progeny production. Multiple independent assays were carried out. A minimum of 100 animals per condition per assay was used, as to ensure sufficient statistical power.
During the ‘repeated dosing assay’, we followed the standard method in the field (i.e. manual inspection of survival of age-synchronized populations on bacteria-coated agar plates^2), which is robust and technically relatively simple. In short, at the onset of adulthood, animals were transferred to standard NGM assay plates (untreated control) or NGM assay plates supplemented with the corresponding compounds at different doses (Table 1). Animals were transferred to fresh standard NGM assay plates or fresh NGM assay plates supplemented with the corresponding compounds at different doses thrice in the first week and weekly thereafter (for a total duration of 33 days). This dosing schedule is in accordance with standardized protocols from the Caenorhabditis Intervention Testing Program (CITP)^4. Met was added to the NGM prior to autoclaving, whereas Gal was pipetted onto the seeded assay plates (at least two hours prior to transferring animals on to the assay plates). A same volume of liquid was added to all plates, also to plates of the untreated control and Met condition (i.e. mock treatment). Animals that crawled off the assay plates or died of internal hatching were censored. The number of live and dead worms was scored every one to two days.

[3] = system: C. elegans sarcomere myofilaments; test: Quantifying muscle morphology and deterioration (myo-3p::MYO-3::GFP, strain RW1596); format: in vivo, Caenorhabditis elegans; conditions: late adulthood (day 14)
From the text: Sarcomeres are fundamental muscle units, responsible for muscle contraction. C. elegans' sarcomeres consist of alternated filaments containing myosin and actin, similar to sarcomeres of vertebrates. While sarcomere myofilaments in the body wall of young animals are organized in parallel symmetric rows, sarcomere myofilaments in older animals become progressively disorganized with a more irregular shape and orientation.
By using a transgenic reporter strain that has a fusion of myosin heavy chain with fluorescent GFP (strain RW1596; myo-3p::MYO-3::GFP), muscle structure of C. elegans can be visualized in vivo. Combined with confocal microscopy and bioinformatic analysis this offers not only qualitative, but also quantitative readouts for the assessment of the organizational level of muscle fibers. An analytical method to quantify muscle deterioration has been optimized at the laboratory of Prof. Bart Braeckman (UGent; unpublished data). We used this technique to verify whether animals treated with Gal and/or Met, display a muscle phenotype resembling that of younger untreated individuals. […]
For each animal, the two morphological metrics ‘aspect ratio’ and ‘smoothness’ were extracted. […] The aspect ratio is calculated as the ratio of the length of the major axis (=length) and the length of the minor axis (=width) for individual myofilaments within a sarcomere. […]

[4] = system: glutathione S-transferase 4 (gst-4) gene transcription; test: In vivo gene activity assay (gst-4p::GFP reporter); parameters: species or system Caenorhabditis elegans; conditions: GFP fluorescence; treated from L1 until late L4 stage
From the text: The transparent body of C. elegans allows for straightforward and non-invasive measurements of in vivo gene transcription via transgenic fluorescent reporters^9. We measured transcription of the gst-4p::GFP C. elegans GFP reporter to gain insight into the intracellular signaling networks that are affected by Met and/or Gal. Additionally, we tested whether Met and Gal have a synergistic or potentiating effect on activation of gst-4 gene transcription.
The gst-4 gene encodes for the cytoprotective and drug-metabolizing enzyme glutathione S-transferase 4 (GST-4). Gst-4 is a direct target of SKN-1, an ortholog of the mammalian Nuclear Factor E2-Related Factor (Nrf2) protein family that is a key transcription factor involved in the protection against oxidative and xenobiotic stresses. […] In C. elegans aging research, transcriptional activation of gst-4 is often used as a read-out for SKN-1 activity. […] GFP fluorescence was quantified using an automated method, as described earlier^11. In short: JMET69 animals with genotype ls[gst-4(1491 bp)::gfp;unc-119(+)];ls[unc-54^p::mCherry;unc-119(+)] were grown in the presence and absence of drugs (i.e. Met and/or Gal) on NGM plates seeded with E. coli OP50, from the L1 until the late L4 stage, before transfer to a 96 well plate for fluorescence quantification. […]

C. elegans [5] = test: Camera-based locomotion tracking (repeated dosing); format: in vivo, Caenorhabditis elegans; conditions: Table 2, day 7 post-reproductive adults; for Cell occupancy ± SEM: squares of 1 mm^2
From the text: as §2
To quantify locomotion effects in more detail, we utilized an automated tracking system for C. elegans that is compatible with standard petri plates. The multi-camera tracking system allows for objective quantification of mean locomotion speed, maximal locomotion speed and multiple behavioral parameters via path-based image analysis. The system was utilized similar to Peymen et al^8. Two distinct assays were performed. In a first assay (Table 2), the locomotion effects of Gal, Met and a combination of both compounds was assayed. This allowed to test for synergetic effects between Gal and Met on multiple locomotion parameters. In a second assay (Table 3), we characterized the locomotion effects of the combination of Met with different acetylcholinesterase inhibitors (i.e. Gal, Don and Riv), as well as the combination of Met with the acetylcholinesterase inhibitor-like compound Mem. As such, we were able to test whether there is a class effect of acetylcholinesterase inhibitors as a whole (in combination with Met). Synchronized wild-type animals were grown in the presence of the corresponding compounds at different doses from the L4 stage (i.e. day 0) and FUdR, until the start of the measurement. Animals were re-dosed thrice (at day 2, 4 and 7) via transfer to fresh compound-treated NGM plates. Prior to imaging, for each replicate 20 well-fed living animals were manually transferred from their culture plate to an unseeded NGM plate, and after 5 min transferred to another unseeded NGM plate used for imaging. Image acquisition took place with StreamPix 6 multicamera software (GigE PRO GP11004M camera with KOWA LM16JC10M lens) for 11 min at 2 fps and a constant exposure, after which worms were tracked using custom particle-tracking MATLAB code. For each mobile animal (i.e. an animal that moved for at least 2 min during the imaging period), both mean and maximal locomotion speeds were extracted, as well as the behavioral metrics ‘cell occupancy’ and ‘fraction running’. The latter represents the fraction of time that an animal was detected to be running (as opposed to pausing or turning). Cell occupancy is a metric quantifying the spatial search efficiency of a worm. Cell occupancy values represent the number of unique cells (squares of 1 mm^2) that the worm visited during the imaging period. Both behavioral parameters decline during aging. Experiments were performed in triplicate (or quadruplicate), with 20 worms per condition per replicate. The results were analyzed using multiple t testing, with the Holm-Sidak correction for multiple comparisons, in GraphPad Prism software. The corresponding p-values are referred to as p.

[6] = system: wild-type C. elegans N2 strain; test: Life span assay, single dosing (WorMotel platform); format: in vivo, Caenorhabditis elegans; conditions: for Decrease MLS versus combo Met25 + Gal100 / Increase MLS versus untreated control / Max LS / Median LS / survival compared to the untreated control: single dosing; for MLS ± SEM (mean life span): single dosing at first day of adulthood, pooled assays; for Max LS: day on which 10% of the animals are still alive; for Median LS: day on which 50% of the animals are still alive; for survival compared to the untreated control: log-rank test
Method: as §3, §1

SMILES	increase in maximal baseline activity compared to the untreated control (C. elegans [1])	increase in total number of healthy days (locomotion-based health span) versus untreated control (C. elegans [1])	Decrease MLS versus combo Met25 + Gal100 [2]	Increase MLS versus untreated control [2]	MLS ± SEM (mean life span) [2]	Max LS [2]	Median LS [2]	sarcomere aspect ratio versus untreated control (in words) [3]	gst-4 transcription level change compared to the untreated control [4]	Fraction running ± SEM (C. elegans [5])	Maximal speed ± SEM (C. elegans [5])	Mean speed ± SEM (C. elegans [5])	Cell occupancy ± SEM (C. elegans [5])	Decrease MLS versus combo Met25 + Gal100 [6]	Increase MLS versus untreated control [6]	MLS ± SEM (mean life span) [6]	Max LS [6]	Median LS [6]	survival compared to the untreated control [6]
COc1ccc2c3c1O[C@H]1C[C@@H](O)C=C[C@@]31CCN(C)C2 [Gal 100, Galantamine hydrobromide]	15%	+20%	−12.5% ****	+6.8% *	16.87 ± 0.32 days	22 days	17 days	no significant increases in aspect ratio	+9%	48 ± 2 ^NS %	270 ± 17 ^NS μm/s	48 ± 4 ^NS μm/s	11 ± 1 ^NS unique areas visited	−3.9% *	+12.8% ***	19.63 ± 0.44 days	27 days	20 days	significantly increased survival
CN(C)C(=N)NC(=N)N.Cl [Met 25, 1,1-Dimethylbiguanide hydrochloride]	35%	+14%	−8.3%	+11.9% ****	17.68 ± 0.50 days	23 days	18 days	no significant increases in aspect ratio	+26%	67 ± 2 %	262 ± 8 ^NS μm/s	102 ± 5 μm/s	28 ± 3 unique areas visited	−6.7% *	+9.6% **	19.08 ± 0.58 days	28 days	20 days	significantly increased survival
